# Experimental data as given in patent US7001770B1, “Calpain inhibitors and their applications” (priority 1998, dated 2006).
# Square brackets hold non-standard residues; d marks the D form. Peptide text beside a SMILES is read from it. Nle = CCCC[C@H](N)C(=O)O
# Tests used:
# AP-1 = test: Gel shift assay; assay type: cell-based; conditions: HLF cells; 10 μM CI-1; 24 hours post treatment
# Method: (§1) The lanes on the gel are labelled as follows: Lane 1=DMF solvent alone control; Lane 2=10 μM CI-1; Lane 3=a null control vector based on ACN53 without the p53 transgene (ZZCB); Lane 4=ZZCB+10 μM CI-1; Lane 5=ACN53 alone and Lane 6=ACN53+ 10 μM CI-1. Panel A illustrates the induction of NF-kb upon administration of calpain inhibitor 1. Panel B illustrates the induction of AP-1 upon administration of calpain inhibitor 1.
# (§2) In contrast to these studies, the present invention further provides a method of enhancing transcription of a therapeutic transgene from the CMV promoter. The term “enhancing transcription” refers to an increase in the transcriptional activity of those sequences operably linked to the CMV promter. The term CMV promoter means the immediate early promoter of the cytomegalovirus. The promoter may be isolated as a restriction endonuclease fragment from the commercially available vector pCMVβ (GenBank Accession Number U02451). […] The CMV promoter is a strong constituitive promoter widely utilized in the expression of exogenous transgenes from viral vectors. Recent reports indicated an upregulation of the CMV promoter driven genes in response to recombinant adenoviral infection. […] In response to calpain inhibitor 1 treatment, a 42% increase in NF-kB activation was detected, and a 50% increase in AP1 activation was detected as quantified by densitometer readings. […]
# NF-kB = test: Gel shift assay; assay type: cell-based; conditions: HLF cells; 10 μM CI-1; 24 hours post treatment
# Method: as §1, §2
# CTL response = test: In vivo CTL response to recombinant adenoviral vector (51Cr release); design: species or system C57BL/6 mice; conditions: for CTL response to the adenoviral vector: 60 mg/Kg or 120 mg/Kg calpain inhibitor 1, 9×10^9 particles/animal iv, spleens day 10
# Method: FIG. 11 is a graphical results of the cytotoxicity assay of CTL against ACN53 transduced EL-4 targets in C57/B16 mice injected with 60 mg/Kg (A) or 120 mg/Kg (♦) calpain inhibitor 1 in combination with ACN53 as more fully described in Example 7 herein. Percent lysis is plotted on the vertical axis and time on the horizontal axis. The ACN53 alone is represented by the circles (●) and the naive control level is represented by the squares (▪).
# The applicants hypothesized that the combined effect on MHC Class 1 presentation and apoptosis of non-transduced will reduce the immune response to the viral vectors. This was confirmed in a in vivo mouse model in substantial accordance with the teaching of example […] herein. The results are shown in the FIG. 8 of the attached drawings.
# C57BU6 mice (2 mice per dose) were injected intravenously with 9×10^9 particles/animal (iv/200 μl) of a recombinant adenoviral vector encoding the βgal reporter gene under control of the CMV promoter. Naive mice were employed as controls. The spleens were harvested at day 10 for immunological analysis. Livers were harvested for analysis of β-gal transgene expression. Cells were be dispersed to a single cell suspension and washed 3 times. The cells were be resuspended complete RPMI-10 (RPMI+10% FCS, 2ME (5 μM), glutamine, Na pyruvate, Pen/Strep). Responder CTL cells were seeded in 24-well plates at 8×10^6 cells per well in 1.5 ml RPMI-5%. The responder CTL cells were restimulated by adding syngeneic (C57BL/6) spleen cells that were transduced for 6 hours with 2×10^10 BGCG particles/ml and then mitomycin treated to inhibit proliferation and/or activation of stimulator cell populations. The responder CTL were co-cultured with the stimulator cells at 37° C. in a humidified incubator for seven days. […] The Effector CTL cells were harvested, washed 2 times and counted to enumerate the CTL effector cells. […] The Effector CTL cells were co-cultivated with the target cells for 6 hours and the specific ^51Cr release were determined by counting harvested supernates (100 μl) in the γ counter.
smiles,measurement,setting,value
"CCCC[C@@H](C=O)NC(=O)[C@H](CC(C)C)NC(=O)[C@H](CC(C)C)NC(C)=O [CI-1, N-acetyl-leu-leu-norleucinal] (Ac-Leu-Leu-[Nle]-aldehyde)",increase in AP1 activation (densitometer),AP-1,50%
same,increase in NF-kB activation (densitometer),NF-kB,42%
same,CTL response to the adenoviral vector,CTL response,significant inhibition
same,CTL response to the adenoviral vector,CTL response; listed as calpain inhibitor 1,substantially reduced
same,relative number of CTL lytic-units (effector to target ratio giving 25% killing),"CTL response; treatment with calpain inhibitor CI-1, BGCG injected mice",greater than a five-fold decrease
